Test results reported in US9765087B2, “Benzimidazole derivatives” (ENANTA PHARMACEUTICALS, INC., priority 2009, dated 2017).
Where two headings read alike, the source gives them in different places.

Assays:
HCV 1b genotype replicon = test: HCV replicon assay (qRT-PCR or luciferase), genotype 1b; format: cell-based; conditions: Hepatitis C virus
Summary of the method: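 EC50 derived either from luciferase signal in Huh-luc/neo-ET replicon cells after 72 h compound exposure (0.2% DMSO, 37 °C) or from TaqMan qRT-PCR of replicon RNA normalized to GAPDH. MTS assay assessed cytotoxicity; combinations tested in 6-point two-fold checkerboards around each EC50.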

HCV 1a genotype replicon = test: HCV replicon assay (qRT-PCR or luciferase), genotype 1a; format: cell-based; conditions: Hepatitis C virus
Summary of the method: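 Bartenschlager HCV replicon Huh cells; EC50 from HCV RNA by TaqMan qRT-PCR normalised to GAPDH, cytotoxicity by MTS. Combination studies in Huh-luc/neo-ET cells seeded at 7,000/well, compounds in 6-point two-fold dilutions, 0.2% DMSO final, 72 h at 37 °C, luciferase read-out.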

[1] = Table 12, numeric values, read-out: 1b EC50
[2] = Table 12, range class, read-out: 1a EC50 Range
[3] = Table 12, range class, read-out: 1b EC50 Range
[4] = Table 12, numeric values, read-out: 1a EC50

Structure (SMILES) | EC50 (HCV 1b genotype replicon; [1]) | EC50 (HCV 1a genotype replicon; [2]) | EC50 (HCV 1b genotype replicon; [3]) | EC50 (HCV 1a genotype replicon; [4]) | EC50 (HCV 1a genotype replicon; read-out: 1a EC50 Range, Table 12, range class)
COC(=O)N[C@H](C(=O)N1CCC[C@H]1c1nc(-c2ccc3nc(-c4ccc5[nH]c([C@@H]6CC7(CC7)CN6C(=O)[C@@H](NC(=O)OC)C(C)C)nc5c4)ncc3c2)c[nH]1)C(C)C [Example 644] | 45 pM | < 1000 pM | – | – | –
COC(=O)N[C@H](C(=O)N1CC2(CC2)C[C@H]1c1nc2cc(C#Cc3ccc(-c4c[nH]c([C@@H]5CCCN5C(=O)[C@H](NC(=O)OC)c5ccccc5)n4)cc3)ccc2[nH]1)C(C)C [Example 579] | – | < 1000 pM | < 1000 pM | – | –
[2H]c1c([2H])c(-c2c[nH]c([C@@H]3CC4(CC4)CN3C(=O)[C@@H](NC(=O)OC)C(C)C)n2)c([2H])c([2H])c1C#Cc1ccc2[nH]c([C@@H]3CC4(CC4)CN3C(=O)[C@@H](NC(=O)OC)C(C)C)nc2c1 [Example 575] | – | < 1000 pM | < 1000 pM | – | –
COC(=O)N[C@H](C(=O)N1CC2(CC2)C[C@H]1c1nc2ccc(C#Cc3ccc(-c4cnc([C@@H]5CC6(CC6)CN5C(=O)[C@H](NC(=O)OC)c5ccccc5)[nH]4)cc3)cc2[nH]1)C(C)C (stereo in doubt) [Example 647] | 8 pM | < 1000 pM | – | – | –
COC(=O)N[C@@H](C(=O)N1CC2(CC2)C[C@H]1c1ncc(-c2ccc(C#Cc3ccc4nc([C@@H]5CC6(CC6)CN5C(=O)[C@H](NC(=O)OC)c5ccccc5)[nH]c4c3)cc2)[nH]1)c1ccccc1 [Example 645] | 5 pM | < 1000 pM | – | – | –
COC(=O)N[C@H](C(=O)N1CCC[C@H]1c1ncc(-c2ccc(C#Cc3ccc4nc([C@@H]5C[C@@]6(CCCOC6)CN5C(=O)[C@@H](NC(=O)OC)C(C)C)[nH]c4c3)cc2)[nH]1)C(C)C [Example 569] | 9 pM | < 1000 pM | – | – | –
COC(=O)N[C@H](C(=O)N1CC2(CC2)C[C@H]1c1ncc(-c2ccc(C#Cc3ccc4nc([C@@H]5C[C@@]6(CCCCO6)CN5C(=O)[C@@H](NC(=O)OC)C(C)C)[nH]c4c3)cc2)[nH]1)C(C)C [Example 633] | – | – | < 1000 pM | 35 pM | –
COC(=O)N[C@H](C(=O)N1CCC[C@H]1c1ncc(-c2ccc(C#Cc3ccc4nc([C@@H]5C[C@H](C6CC6)CN5C(=O)[C@@H](NC(=O)OC)C(C)C)[nH]c4c3)cc2)[nH]1)C(C)C [Example 641] | 7 pM | < 1000 pM | – | – | –
COC(=O)N[C@H](C(=O)N1C[C@]2(CCCO2)C[C@H]1c1ncc(-c2ccc(C#Cc3ccc4nc([C@@H]5C[C@@]6(CCCO6)CN5C(=O)[C@@H](NC(=O)OC)C(C)C)[nH]c4c3)cc2)[nH]1)C(C)C [Example 625] | – | < 1000 pM | < 1000 pM | – | –
COC(=O)N[C@H](C(=O)N1C[C@@H](O)C[C@H]1c1nc(-c2ccc(C#Cc3ccc4[nH]c([C@@H]5C[C@@]6(CCCO6)CN5C(=O)[C@@H](NC(=O)OC)C(C)C)nc4c3)cc2)c[nH]1)C(C)C [Example 561] | 24 pM | < 1000 pM | – | – | –
COC(=O)N[C@H](C(=O)N1CCC[C@H]1c1nc(-c2ccc(C#Cc3ccc4[nH]c([C@@H]5CC6(CCOCC6)CN5C(=O)[C@@H](NC(=O)OC)C(C)C)nc4c3)cc2)c[nH]1)C(C)C [Example 568] | 9 pM | < 1000 pM | – | – | –
COC(=O)N[C@H](C(=O)N1CCC[C@H]1c1ncc(-c2ccc3nc(-c4ccc5nc([C@@H]6CC7(CC7)CN6C(=O)[C@@H](NC(=O)OC)C(C)C)[nH]c5c4)cnc3c2)[nH]1)C(C)C [Example 643] | 54 pM | < 1000 pM | – | – | –
COC(=O)N[C@@H](CCCNC(N)=O)C(=O)N1CC2(CC2)C[C@H]1c1nc(-c2ccc(C#Cc3ccc4[nH]c([C@@H]5CC6(CC6)CN5C(=O)[C@@H](NC(=O)OC)C(C)C)nc4c3)cc2)c[nH]1 [Example 616] | 495 pM | < 1000 pM | – | – | –
COC(=O)N[C@H](C(=O)N1CCC[C@H]1c1ncc(-c2ccc(C#Cc3ccc4nc([C@@H]5CC6(CC6)CN5C(=O)[C@H](NC(=O)OC)c5ccccc5)[nH]c4c3)cc2)[nH]1)C(C)C [Example 646] | 5 pM | – | – | – | < 1000 pM
COC(=O)N[C@H](C(=O)N1CC2(CC2)C[C@H]1c1ncc(-c2ccc(C#Cc3ccc4nc([C@@H]5C[C@]6(CCOC6)CN5C(=O)[C@@H](NC(=O)OC)C(C)C)[nH]c4c3)cc2)[nH]1)C(C)C [Example 565] | 11 pM | < 1000 pM | – | – | –
COC(=O)N[C@H](C(=O)N1CC2(CC2)C[C@H]1c1ncc(-c2ccc(C#Cc3ccc4nc([C@@H]5C[C@]6(CCCOC6)CN5C(=O)[C@@H](NC(=O)OC)C(C)C)[nH]c4c3)cc2)[nH]1)C(C)C [Example 639] | 8 pM | < 1000 pM | – | – | –
COC(=O)N[C@H](C(=O)N1CC2(CC2)C[C@H]1c1ncc(-c2ccc(C#Cc3ccc4nc([C@@H]5CC6(CC6)CN5C(=O)[C@H](NC(=O)OC)c5ccc(F)cc5)[nH]c4c3)cc2)[nH]1)C(C)C [Example 580] | 7 pM | < 1000 pM | – | – | –
COC(=O)N[C@H](C(=O)N1CCC[C@H]1c1nc(-c2ccc(C#Cc3ccc4[nH]c([C@@H]5C[C@]6(CCOC6)CN5C(=O)[C@@H](NC(=O)OC)C(C)C)nc4c3)cc2)c[nH]1)C(C)C [Example 564] | 8 pM | < 1000 pM | – | – | –
COC(=O)N[C@H](C(=O)N1C[C@@]2(C[C@H]1c1nc(-c3ccc(C#Cc4ccc5[nH]c([C@@H]6CC7(CC7)CN6C(=O)[C@@H](NC(=O)OC)C(C)C)nc5c4)cc3)c[nH]1)CC2(F)F)C(C)C [Example 687] | 10 pM | < 1000 pM | – | – | –
COC(=O)N[C@H](C(=O)N1CC2(CC2)C[C@H]1c1ncc(-c2ccc(C#Cc3ccc4nc([C@@H]5CC6(CC6)CN5C(=O)[C@@H](NC(=O)OC)C5CCOCC5)[nH]c4c3)cc2)[nH]1)C1CCOCC1 [Example 583] | – | < 1000 pM | < 1000 pM | – | –
COC(=O)N[C@H](C(=O)N1CCC[C@H]1c1ncc(-c2ccc(C#Cc3ccc4nc([C@@H]5C[C@@]6(CCC(=O)O6)CN5C(=O)[C@@H](NC(=O)OC)C(C)C)[nH]c4c3)cc2)[nH]1)C(C)C [Example 635] | – | < 1000 pM | < 1000 pM | – | –
COC(=O)N[C@H](C(=O)N1CC(F)(F)C[C@H]1c1nc(-c2ccc(C#Cc3ccc4[nH]c([C@@H]5C[C@@]6(CCCO6)CN5C(=O)[C@@H](NC(=O)OC)C(C)C)nc4c3)cc2)c[nH]1)C(C)C [Example 627] | 10 pM | < 1000 pM | – | – | –
COC(=O)N[C@H](C(=O)N1C[C@](C)(F)C[C@H]1c1nc(-c2ccc(C#Cc3ccc4[nH]c([C@@H]5C[C@@]6(CCCO6)CN5C(=O)[C@@H](NC(=O)OC)C(C)C)nc4c3)cc2)c[nH]1)C(C)C [Example 567] | 15 pM | < 1000 pM | – | – | –
COC(=O)N[C@H](C(=O)N1C[C@H](F)C[C@H]1c1nc(-c2ccc(C#Cc3ccc4[nH]c([C@@H]5C[C@@]6(CCCO6)CN5C(=O)[C@@H](NC(=O)OC)C(C)C)nc4c3)cc2)c[nH]1)C(C)C [Example 629] | 17 pM | – | – | 180 pM | –
COC(=O)N[C@H](C(=O)N1CC2(CC2)C[C@H]1c1nc2ccc(C#Cc3ccc(-c4cnc([C@@H]5C[C@H]6C[C@H]6N5C(=O)[C@@H](NC(=O)OC)C(C)C)[nH]4)cc3)cc2[nH]1)C(C)C [Example 637] | 4 pM | < 1000 pM | – | – | –
COC(=O)N[C@@H](CF)C(=O)N1CC2(CC2)C[C@H]1c1nc(-c2ccc(C#Cc3ccc4[nH]c([C@@H]5CC6(CC6)CN5C(=O)[C@@H](NC(=O)OC)C(C)C)nc4c3)cc2)c[nH]1 [Example 615] | 5 pM | < 1000 pM | – | – | –
COC(=O)N[C@H](C(=O)N1CC2(CC2)C[C@H]1c1nc(-c2ccc(C#Cc3ccc4[nH]c([C@@H]5C[C@@]6(CCOC6)CN5C(=O)[C@@H](NC(=O)OC)C(C)C)nc4c3)cc2)c[nH]1)C(C)C [Example 631] | 8 pM | < 1000 pM | – | – | –
COC(=O)N[C@@H](COC(N)=O)C(=O)N1CCC[C@H]1c1ncc(-c2ccc(C#Cc3ccc4nc([C@@H]5CC6(CC6)CN5C(=O)[C@@H](NC(=O)OC)C(C)C)[nH]c4c3)cc2)[nH]1 [Example 552] | – | < 1000 pM | < 1000 pM | – | –
COC(=O)NCCCC[C@H](NC(=O)OC)C(=O)N1CCC[C@H]1c1nc(-c2ccc(C#Cc3ccc4[nH]c([C@@H]5CC6(CC6)CN5C(=O)[C@@H](NC(=O)OC)C(C)C)nc4c3)cc2)c[nH]1 [Example 693] | – | < 1000 pM | < 1000 pM | – | –
COC(=O)N[C@H](C(=O)N1CCC[C@H]1c1nc(-c2ccc(C#Cc3ccc4[nH]c([C@@H]5C[C@@]6(CCCO6)CN5C(=O)[C@@H](NC(=O)OC)C(C)C)nc4c3)cc2)c[nH]1)C(C)C [Example 551] | 13 pM | < 1000 pM | – | – | –
